According to ChEMBL document CHEMBL5518230, “Identification of a Novel Selective CDK9 Inhibitor for the Treatment of CRC: Design, Synthesis, and Biological Activity Evaluation” (J Med Chem, 2024):
The source made the active and inactive calls. The calls are words filed in the database; no cut-off is given here.

What was measured:
[1] = molecular target: Cyclin-dependent kinase 7 (Homo sapiens, UniProt P50613); assay: Inhibition of CDK7 (unknown origin)
[2] = molecular target: Glycogen synthase kinase-3 beta (Homo sapiens) (UniProt P49841); assay: Inhibition of human GSK3beta at 100 nM by kinase profiling assay relative to control
Chain of Glycogen synthase kinase-3 beta (Homo sapiens) (P49841 whole entry, looked up): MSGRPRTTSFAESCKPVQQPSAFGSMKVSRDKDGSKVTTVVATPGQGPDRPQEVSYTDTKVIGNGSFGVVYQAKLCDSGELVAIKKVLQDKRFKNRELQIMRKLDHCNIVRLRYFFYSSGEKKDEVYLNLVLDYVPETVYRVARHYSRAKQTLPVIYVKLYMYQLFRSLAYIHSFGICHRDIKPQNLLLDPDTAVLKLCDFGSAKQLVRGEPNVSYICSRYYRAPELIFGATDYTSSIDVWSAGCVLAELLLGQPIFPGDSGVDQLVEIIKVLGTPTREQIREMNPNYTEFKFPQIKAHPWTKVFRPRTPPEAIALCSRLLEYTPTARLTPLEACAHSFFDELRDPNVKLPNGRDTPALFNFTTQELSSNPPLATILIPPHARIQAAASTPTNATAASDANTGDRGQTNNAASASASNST

[3] = molecular target: Aurora kinase B (Homo sapiens) (UniProt Q96GD4); assay: Inhibition of human AurB at 100 nM by kinase profiling assay relative to control
[4] = Toxicity in BALB/c mouse xenografted with human HCT-116 cells assessed as body weight loss at 25 mg/kg,po administrated once daily for 3 weeks; type: organism-based; details: in vivo, 504 h
[5] = molecular target: Inhibitor of nuclear factor kappa-B kinase subunit alpha (Homo sapiens) (UniProt O15111); assay: Inhibition of human IKKalpha at 100 nM by kinase profiling assay relative to control
Chain of Inhibitor of nuclear factor kappa-B kinase subunit alpha (Homo sapiens) (O15111 whole entry): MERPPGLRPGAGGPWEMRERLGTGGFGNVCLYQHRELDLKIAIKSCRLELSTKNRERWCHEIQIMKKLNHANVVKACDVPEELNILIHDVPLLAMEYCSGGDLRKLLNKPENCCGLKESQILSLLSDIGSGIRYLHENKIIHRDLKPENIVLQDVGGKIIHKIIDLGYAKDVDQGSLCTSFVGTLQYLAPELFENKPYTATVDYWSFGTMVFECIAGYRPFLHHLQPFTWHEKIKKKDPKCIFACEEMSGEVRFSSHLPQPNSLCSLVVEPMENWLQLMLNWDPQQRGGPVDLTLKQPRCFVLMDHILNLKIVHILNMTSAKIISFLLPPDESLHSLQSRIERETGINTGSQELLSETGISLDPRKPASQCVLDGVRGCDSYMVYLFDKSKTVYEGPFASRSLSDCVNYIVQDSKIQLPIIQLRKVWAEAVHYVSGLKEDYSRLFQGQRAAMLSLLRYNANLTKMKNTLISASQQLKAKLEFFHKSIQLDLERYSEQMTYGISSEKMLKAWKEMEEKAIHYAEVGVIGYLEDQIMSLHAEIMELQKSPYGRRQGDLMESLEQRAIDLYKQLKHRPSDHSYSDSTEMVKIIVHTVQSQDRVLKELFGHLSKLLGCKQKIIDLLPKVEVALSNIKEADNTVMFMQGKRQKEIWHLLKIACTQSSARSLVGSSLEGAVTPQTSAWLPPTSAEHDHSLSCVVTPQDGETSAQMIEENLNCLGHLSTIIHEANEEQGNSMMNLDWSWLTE

HCT-116 [6] = assay: Antitumor activity against human HCT-116 cells xenografted in BALB/c mouse assessed as downregulation of Mcl-1 expression at 25 mg/kg,po administrated once daily for 3 weeks by Western blotting analysis; type: functional, organism-based
[7] = Toxicity in BALB/c mouse xenografted with human HCT-116 cells assessed as liver morphological change at 50 mg/kg,po administrated once daily for 3 weeks by hematoxylin and eosin staining based microscopic analysis; type: organism-based; details: in vivo, 504 h
HCT-116 [8] = assay: Induction of apoptosis in human HCT-116 cells assessed as downregulation of cleaved caspase-3 expression at 25 to 400 nM incubated for 48 hrs by Western blotting analysis; type: functional, cell-based; details: dose 25-400 nM
[9] = Selectivity index, ratio of GI50 for growth inhibition of human SW480 cells to GI50 for growth inhibition of human HCT-116 cells; type: functional
[10] = Toxicity in BALB/c mouse xenografted with human HCT-116 cells assessed as kidney morphological change at 25 mg/kg,po administrated once daily for 3 weeks by hematoxylin and eosin staining based microscopic analysis; type: organism-based; details: in vivo, 504 h
[11] = Tmax in Sprague-Dawley rat at 10 mg/kg,po administration measured for 0.25 to 24 hrs by LC-MS/MS analysis; type: ADME, organism-based; details: in vivo, time 0.25-24 hrs
HCT-116 [12] = assay: Induction of apoptosis in human HCT-116 cells assessed as increase in caspase-3 activity incubated for 48 hrs by GreenNuc substrate based flow cytometric analysis; type: functional, cell-based
[13] = molecular target: Homeodomain-interacting protein kinase 1 (Homo sapiens) (UniProt Q86Z02); assay: Inhibition of human HIPK1 at 100 nM by kinase profiling assay relative to control
Chain of Homeodomain-interacting protein kinase 1 (Homo sapiens) (Q86Z02 whole entry, looked up): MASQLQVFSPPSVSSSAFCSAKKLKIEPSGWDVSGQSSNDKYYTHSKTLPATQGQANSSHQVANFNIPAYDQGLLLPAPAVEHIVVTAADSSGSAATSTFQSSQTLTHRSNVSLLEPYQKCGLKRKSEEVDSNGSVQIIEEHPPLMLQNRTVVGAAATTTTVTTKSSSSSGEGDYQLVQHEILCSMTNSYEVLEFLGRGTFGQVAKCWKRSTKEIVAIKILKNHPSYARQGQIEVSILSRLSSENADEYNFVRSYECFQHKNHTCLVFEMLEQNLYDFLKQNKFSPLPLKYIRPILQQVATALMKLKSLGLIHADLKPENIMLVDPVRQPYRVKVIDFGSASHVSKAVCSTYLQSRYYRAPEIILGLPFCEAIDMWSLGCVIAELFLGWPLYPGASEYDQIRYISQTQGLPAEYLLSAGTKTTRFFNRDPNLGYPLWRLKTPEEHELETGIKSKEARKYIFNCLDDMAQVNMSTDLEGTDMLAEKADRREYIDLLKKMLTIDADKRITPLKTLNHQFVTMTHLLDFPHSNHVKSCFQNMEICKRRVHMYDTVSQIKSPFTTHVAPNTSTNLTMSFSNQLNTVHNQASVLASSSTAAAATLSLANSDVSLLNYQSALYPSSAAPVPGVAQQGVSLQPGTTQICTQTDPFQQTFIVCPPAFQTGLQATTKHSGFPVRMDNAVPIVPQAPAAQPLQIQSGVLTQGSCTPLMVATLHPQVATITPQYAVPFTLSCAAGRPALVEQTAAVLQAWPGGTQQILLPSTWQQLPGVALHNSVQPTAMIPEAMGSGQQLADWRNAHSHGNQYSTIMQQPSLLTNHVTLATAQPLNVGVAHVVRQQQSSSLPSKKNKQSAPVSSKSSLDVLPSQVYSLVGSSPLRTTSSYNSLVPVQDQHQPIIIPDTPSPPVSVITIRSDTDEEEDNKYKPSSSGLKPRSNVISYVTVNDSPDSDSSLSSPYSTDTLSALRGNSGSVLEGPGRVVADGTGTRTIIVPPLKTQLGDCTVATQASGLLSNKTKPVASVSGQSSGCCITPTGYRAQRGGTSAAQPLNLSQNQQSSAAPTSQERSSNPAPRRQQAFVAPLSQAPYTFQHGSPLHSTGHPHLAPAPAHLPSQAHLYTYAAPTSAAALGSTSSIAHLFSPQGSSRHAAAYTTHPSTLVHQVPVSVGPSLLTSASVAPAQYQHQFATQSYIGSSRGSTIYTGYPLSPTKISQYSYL

[14] = Selectivity index, ratio of GI50 for growth inhibition of human CCC-HIE-2 cells to GI50 for growth inhibition of human HCT-116 cells
[15] = Toxicity in BALB/c mouse xenografted with human HCT-116 cells assessed as body weight loss at 50 mg/kg,po administrated once daily for 3 weeks; type: organism-based; details: in vivo, 504 h
[16] = AUC (0 to infinity) in Sprague-Dawley rat at 2 mg/kg,iv administration measured for 0.25 to 24 hrs by LC-MS/MS analysis; type: ADME, organism-based; details: in vivo, time 0.25-24 hrs
HCT-116 [17] = assay: Antitumor activity against human HCT-116 cells xenografted in BALB/c mouse assessed as downregulation of Mcl-1 expression at 50 mg/kg,po administrated once daily for 3 weeks by Western blotting analysis; type: functional, organism-based
[18] = Toxicity in BALB/c mouse xenografted with human HCT-116 cells assessed as kidney morphological change at 50 mg/kg,po administrated once daily for 3 weeks by hematoxylin and eosin staining based microscopic analysis; type: organism-based; details: in vivo, 504 h
[19] = Toxicity in BALB/c mouse xenografted with human HCT-116 cells assessed as lung morphological change at 25 mg/kg,po administrated once daily for 3 weeks by hematoxylin and eosin staining based microscopic analysis; type: organism-based; details: in vivo, 504 h
[20] = molecular target: Rho-associated protein kinase 1 (Homo sapiens) (UniProt Q13464); assay: Inhibition of human ROCK1 at 100 nM by kinase profiling assay relative to control
Chain of Rho-associated protein kinase 1 (Homo sapiens) (Q13464 2-1354 limits assumed): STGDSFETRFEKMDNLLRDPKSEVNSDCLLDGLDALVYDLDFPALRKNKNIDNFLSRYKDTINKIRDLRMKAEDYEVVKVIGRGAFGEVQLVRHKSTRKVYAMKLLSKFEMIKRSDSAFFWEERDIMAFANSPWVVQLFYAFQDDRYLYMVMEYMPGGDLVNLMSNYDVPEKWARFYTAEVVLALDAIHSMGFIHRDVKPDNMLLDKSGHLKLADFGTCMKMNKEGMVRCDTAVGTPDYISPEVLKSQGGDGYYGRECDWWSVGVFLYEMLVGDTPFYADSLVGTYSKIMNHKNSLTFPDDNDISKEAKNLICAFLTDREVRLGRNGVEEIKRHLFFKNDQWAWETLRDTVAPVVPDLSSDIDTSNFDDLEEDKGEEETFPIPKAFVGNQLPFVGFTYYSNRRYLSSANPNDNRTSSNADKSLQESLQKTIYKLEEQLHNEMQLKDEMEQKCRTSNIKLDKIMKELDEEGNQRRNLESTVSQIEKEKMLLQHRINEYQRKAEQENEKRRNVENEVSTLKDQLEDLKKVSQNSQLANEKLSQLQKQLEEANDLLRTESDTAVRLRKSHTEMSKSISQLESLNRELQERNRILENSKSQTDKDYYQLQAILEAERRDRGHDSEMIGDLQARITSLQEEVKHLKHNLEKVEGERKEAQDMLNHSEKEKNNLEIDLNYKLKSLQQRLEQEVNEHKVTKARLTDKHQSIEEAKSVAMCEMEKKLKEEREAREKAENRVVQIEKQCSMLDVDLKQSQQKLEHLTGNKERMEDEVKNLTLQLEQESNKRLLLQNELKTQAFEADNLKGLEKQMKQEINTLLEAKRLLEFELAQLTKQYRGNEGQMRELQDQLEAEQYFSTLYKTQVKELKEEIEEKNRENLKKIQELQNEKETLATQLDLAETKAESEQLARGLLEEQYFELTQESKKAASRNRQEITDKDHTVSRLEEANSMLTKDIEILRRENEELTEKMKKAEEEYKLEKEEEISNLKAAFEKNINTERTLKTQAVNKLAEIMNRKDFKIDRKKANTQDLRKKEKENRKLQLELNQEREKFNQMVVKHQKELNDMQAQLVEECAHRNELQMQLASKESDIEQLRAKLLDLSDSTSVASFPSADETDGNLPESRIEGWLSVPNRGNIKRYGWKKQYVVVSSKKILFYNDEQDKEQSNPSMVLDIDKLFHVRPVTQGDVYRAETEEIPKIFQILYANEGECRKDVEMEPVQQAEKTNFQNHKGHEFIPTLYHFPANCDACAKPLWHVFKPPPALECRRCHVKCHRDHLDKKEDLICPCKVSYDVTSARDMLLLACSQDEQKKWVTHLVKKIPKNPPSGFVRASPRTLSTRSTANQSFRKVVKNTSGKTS

HCT-116 [21] = assay: Growth inhibition of human HCT-116 cells incubated for 48 hrs by CCK-8 assay; type: functional
[22] = MRT (0 to infinity) in Sprague-Dawley rat at 10 mg/kg,po administration measured for 0.25 to 24 hrs by LC-MS/MS analysis; type: ADME, organism-based; details: in vivo, time 0.25-24 hrs
[23] = MRT (0 to t) in Sprague-Dawley rat at 10 mg/kg,po administration measured for 0.25 to 24 hrs by LC-MS/MS analysis; type: ADME, organism-based; details: in vivo, time 0.25-24 hrs
[24] = Toxicity in BALB/c mouse xenografted with human HCT-116 cells assessed as spleen morphological change at 50 mg/kg,po administrated once daily for 3 weeks by hematoxylin and eosin staining based microscopic analysis; type: organism-based; details: in vivo, 504 h
[25] = molecular target: Cyclin-dependent kinase 1 (Homo sapiens, UniProt P06493); assay: Inhibition of CDK1 (unknown origin)
HCT-116 [26] = assay: Induction of apoptosis in human HCT-116 cells assessed as effect on RNA polymerase II expression at 25 to 400 nM incubated for 48 hrs by Western blotting analysis; type: functional, cell-based; details: dose 25-400 nM
[27] = Intrinsic microsomal clearance in human liver microsomes at 100 uM measured upto 60 mins in presence of NADPH by LC-MS/MS analysis; type: ADME, Microsome; details: read-out: CLH
CYP2C19 = CYP2C19 (Homo sapiens, UniProt P33261); assay: Inhibition of CYP2C19 in human liver microsomes using benzylnirvanol as […] at 10 uM preincubated for 10 mins followed by NADPH addition measured after 15 mins by LC-MS/MS analysis relative to control; type: ADME, Microsome; details: probe benzylnirvanol, time 25 min
Chain of CYP2C19 (P33261 whole entry): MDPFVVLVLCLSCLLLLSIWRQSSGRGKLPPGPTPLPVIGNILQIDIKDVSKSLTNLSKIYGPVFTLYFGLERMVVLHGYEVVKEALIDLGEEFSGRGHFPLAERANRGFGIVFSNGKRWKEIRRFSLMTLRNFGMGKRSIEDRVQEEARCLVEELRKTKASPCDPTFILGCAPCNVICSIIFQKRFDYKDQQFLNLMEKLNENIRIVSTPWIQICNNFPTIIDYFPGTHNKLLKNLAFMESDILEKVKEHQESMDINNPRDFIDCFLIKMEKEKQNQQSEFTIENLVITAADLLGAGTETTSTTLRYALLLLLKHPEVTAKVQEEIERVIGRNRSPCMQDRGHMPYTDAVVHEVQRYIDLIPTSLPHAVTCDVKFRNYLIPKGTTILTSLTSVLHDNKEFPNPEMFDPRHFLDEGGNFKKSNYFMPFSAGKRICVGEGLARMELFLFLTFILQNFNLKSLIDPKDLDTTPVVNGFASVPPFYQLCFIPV

[28] = Toxicity in BALB/c mouse xenografted with human HCT-116 cells assessed as heart morphological change at 25 mg/kg,po administrated once daily for 3 weeks by hematoxylin and eosin staining based microscopic analysis; type: organism-based; details: in vivo, 504 h
CYP2C9 = CYP2C9 (Homo sapiens, UniProt P11712); assay: Inhibition of CYP2C9 in human liver microsomes using sulfaphenazole as […] at 10 uM preincubated for 10 mins followed by NADPH addition measured after 15 mins by LC-MS/MS analysis relative to control; type: ADME, Microsome; details: probe sulfaphenazole, time 25 min
Chain of CYP2C9 (P11712 whole entry): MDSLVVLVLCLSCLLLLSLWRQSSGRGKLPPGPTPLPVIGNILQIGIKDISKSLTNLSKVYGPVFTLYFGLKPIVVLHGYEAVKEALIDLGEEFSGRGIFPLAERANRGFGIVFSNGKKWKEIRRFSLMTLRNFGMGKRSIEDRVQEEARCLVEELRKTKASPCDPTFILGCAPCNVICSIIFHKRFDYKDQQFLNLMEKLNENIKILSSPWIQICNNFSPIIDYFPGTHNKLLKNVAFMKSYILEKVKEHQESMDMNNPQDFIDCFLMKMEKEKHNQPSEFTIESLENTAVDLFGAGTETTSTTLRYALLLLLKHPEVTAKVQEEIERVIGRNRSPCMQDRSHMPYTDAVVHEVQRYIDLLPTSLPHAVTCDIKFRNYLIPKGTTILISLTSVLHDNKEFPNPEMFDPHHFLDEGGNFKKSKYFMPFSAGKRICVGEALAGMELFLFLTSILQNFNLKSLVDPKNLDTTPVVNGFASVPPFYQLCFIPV

[29] = Clearance in Sprague-Dawley rat at 2 mg/kg,iv administration measured for 0.25 to 24 hrs by LC-MS/MS analysis; type: ADME, organism-based; details: in vivo, time 0.25-24 hrs
[30] = molecular target: Interleukin-1 receptor-associated kinase 1 (Homo sapiens) (UniProt P51617); assay: Inhibition of human IRAK1 at 100 nM by kinase profiling assay relative to control

Chain of Cyclin-dependent kinase 7 (P50613 whole entry): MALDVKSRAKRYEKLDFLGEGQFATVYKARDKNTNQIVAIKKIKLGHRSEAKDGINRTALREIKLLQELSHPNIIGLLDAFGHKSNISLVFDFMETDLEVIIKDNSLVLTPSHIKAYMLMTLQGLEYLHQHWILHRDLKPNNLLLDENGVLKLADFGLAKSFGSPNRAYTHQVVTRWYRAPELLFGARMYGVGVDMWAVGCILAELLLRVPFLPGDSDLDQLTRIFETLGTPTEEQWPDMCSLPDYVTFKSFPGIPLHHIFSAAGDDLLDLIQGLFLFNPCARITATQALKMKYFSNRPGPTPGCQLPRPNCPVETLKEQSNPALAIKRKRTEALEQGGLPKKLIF

SMILES: CC(C)n1nnc2ccc(-c3ccnc(Nc4cc(C(=O)N5CCCN(C)CC5)ccn4)c3)cc21
- IC50 [1]: > 500 nM
- inhibition [2]: < 50%
- inhibition [3]: < 50%
- Activity [4]: Non-Toxic
- inhibition [5]: < 50%
- Activity (HCT-116 [6]): Active
- Activity [7]: Non-Toxic
- Activity (HCT-116 [8]): Active
- RatioGI50 [9]: 92.97
- Activity [10]: Non-Toxic
- Tmax [11]: 30 min
- Activity (HCT-116 [12]): Dose-Dependent Effect
- inhibition [13]: < 50%
- RatioGI50 [14]: 173.46
- Activity [15]: Non-Toxic
- AUC(0-inf) [16]: 373 ng·h/mL
- Activity (HCT-116 [17]): Active
- Activity [18]: Non-Toxic
- Activity [19]: Non-Toxic
- inhibition [20]: < 50%
- GI50 (HCT-116 [21]): 50 nM
- MRT inf [22]: 7.02 h
- MRT last [23]: 4.62 h
- Activity [24]: Non-Toxic
- IC50 [25]: 439 nM
- Activity (HCT-116 [26]): inactive
- microsomal CLint at 100 µM [27]: 55.1 µL/min/mg
- inhibition at 0.25 h, 10 µM (CYP2C19): 24.5%
- Activity [28]: Non-Toxic
- inhibition at 0.25 h, 10 µM (CYP2C9): 27.9%
- clearance [29]: 89.8 mL/min/kg
- inhibition [30]: < 50%
